PMC5582420, “Hirsutine, an Indole Alkaloid of Uncaria rhynchophylla, Inhibits Late Step in Dengue Virus Lifecycle” (Frontiers in Microbiology, 2017)

Tests used:
DENV-1 (02-20 strain) [1] = assay: Plaque assay, EC50 against DENV-1 (fourth screening); assay type: cell-based, Dengue virus; details: compounds; for EC50: Dengue virus, DENV1, against DENV-1, plaque assay, Reed and Muench method; for SI: selectivity index from CC50 and EC50
DENV-1 (02-20 strain) [2] = assay: Virus titer by plaque assay in infected A549 cells, DENV-1; assay type: cell-based, Dengue virus; details: 10 μM, MOI 0.01, supernatant 72 hpi
Protocol: (§1) The viruses used in this study included DENV-1 (02-20 strain) ([Tajima et al., 2006]), DENV-2 (16681 strain), DENV-3 (09-59 strain), and DENV-4 (09-48 strain). The strains were cultured in Vero cells, and stored at -80°C. Dengue virus titer was determined by plaque assay as summarized below.
(§2) Baby hamster kidney-21 cells were cultured in a 12-well plate and infected with serial dilutions of virus suspension, then incubated at 37°C for 1 h. At 1 hpi, cells were incubated in EMEM containing 2% FBS and 1% methylcellulose. After 5 days of incubation, the cells were fixed with paraformaldehyde and stained with methylene blue. Virus titer was calculated as plaque-forming units (PFU)/mL. The half-maximal effective concentration (EC50) against each virus was calculated using the Reed and Muench method.
(§3) FIGURE 1 Hirsutine inhibits replication of dengue virus serotypes DENV-1–4. (A) Structural formula of hirsutine. (B) Hirsutine inhibits viral replication of all four serotypes. A549 cells were infected with DENV-1–4 at a multiplicity of infection (MOI) of 0.01 in the presence of 10 μM hirsutine. Cell culture supernatants were collected 72 hpi, and viral titers were determined by plaque assay. All data were normalized to their control (0 μM of hirsutine).

MTT cytotoxicity assay = assay type: cell-based; details: human, compounds, A549 cells, 3-day incubation
Protocol: Human lung carcinoma cells (A549) and baby hamster kidney cells (BHK-21) were maintained in Eagle’s minimum essential medium (EMEM; Life Technologies, Carlsbad, CA, United States) supplemented with 10% fetal bovine serum (FBS; JR Scientific, Woodland, CA, United States), penicillin, and streptomycin sulfate (Nacalai Tesque, Kyoto, Japan) at 37°C with 5% CO2. Hybridoma-producing anti-E antibody (HB-112) was maintained in RPMI 1640 medium (Life Technologies, Carlsbad, CA, United States) supplemented with 10% FBS and antibiotics at 37°C with 5% CO2.
Cell viability was assessed by 3-(4,5-dimethylthiazol-2-yl)-2,5-diphenyltetrazolium bromide (MTT) assay. A549 cells were cultured in a 96-well plate with the selected compound (0–10 μM) or extract (0–100 μg/mL). After a 3-day incubation, 30 μL of 0.5% MTT solution was added to each well. After incubation for 3 h, the supernatant was replaced with 100 μL of methanol with 1% Triton X-100, and then vortexed to dissolve the formazan. Absorbance at 565 nm and reference at 655 nm were measured using a microplate reader (Berthold Technologies, Bad Wildbad, Germany). The half-maximal cytotoxicity concentration (CC50) was calculated using the Reed and Muench method ([Reed and Muench, 1938]).

[3] = system: DENV-NS3 protein expression, DENV-1; assay: Western blot of DENV-NS3 protein in DENV-1-infected A549 cells; assay type: cell-based, Dengue virus; details: MOI 0.1 and 1.0, 18 hpi
Protocol: Western blotting was performed as described previously ([Hishiki et al., 2014]). Briefly, DENV-1-infected A549 cells were co-cultured with 10 μM hirsutine, 100 μM ribavirin, or 10 μM bromocriptine. Protein samples were separated by SDS-PAGE and transferred to polyvinylidene fluoride blotting membranes (GE Healthcare, Little Chalfont, United Kingdom). Anti-NS3 rabbit polyclonal antibodies (GTX124252; GeneTex, Irvine, CA, United States) and anti-glyceraldehyde-3-phosphate dehydrogenase (GAPDH) mouse monoclonal antibodies (MAB374; Millipore, Billerica, MA, United States) were used as primary antibodies.
A549 cells were infected with DENV-1 at a MOI of 0.1 and 1.0 in the presence of 10 μM hirsutine (Hi), 100 μM ribavirin (Ri), or 10 μM bromocriptine (Br). Cell lysate was collected 18 h post-infection, and DENV-NS3 (top) and GAPDH (bottom) protein expression levels were assessed by Western blot.

DENV-1 [4] = assay: Time-of-drug-addition assay; assay type: cell-based, Dengue virus; details: 10 μM added at 0, 2, 4, 6, 8, 12, 18 hpi; A549, MOI 1.0; titer at 24 hpi
Protocol: Next, the cells were rinsed twice with phosphate-buffered saline, and fresh medium was added. At 0, 2, 4, 6, 8, 12, and 18 hpi, hirsutine at a final concentration of 10 μM was added to the infected cells. At 24 hpi, the cell culture supernatant was collected, and viral titer was assessed by plaque assay.
(§4) FIGURE 2 Hirsutine inhibits the late stage of the dengue virus lifecycle. (A) Time-of-drug-addition assay. Hirsutine (10 μM) was added at 0, 2, 4, 6, 8, 12, and 18 h post-DENV-1 infection. After 24 h, virus titers in the culture supernatant were analyzed by plaque assay. (B) Time-of-drug-elimination assay. Hirsutine (10 μM) was treated for 0–2, 0–4, and 0–6 h post-DENV-1 infection. After 24 h, virus titers in the culture supernatant were analyzed by plaque assay. ^∗p < 0.05. […] DMSO, dimethyl sulfoxide; hpi, hours post-infection; and PFU, plaque-forming units.

DENV-2 (16681 strain) = assay: Virus titer by plaque assay in infected A549 cells, DENV-2; assay type: cell-based, Dengue virus; details: 10 μM, MOI 0.01, supernatant 72 hpi
Protocol: as §1, §2, §3

DENV-3 (09-59 strain) = assay: Virus titer by plaque assay in infected A549 cells, DENV-3; assay type: cell-based, Dengue virus; details: 10 μM, MOI 0.01, supernatant 72 hpi
Protocol: as §1, §2, §3

DENV-4 (09-48 strain) = assay: Virus titer by plaque assay in infected A549 cells, DENV-4; assay type: cell-based, Dengue virus; details: 10 μM, MOI 0.01, supernatant 72 hpi
Protocol: as §1, §2, §3

DENV-1 [5] = assay: Time-of-drug-elimination assay; assay type: cell-based, Dengue virus; details: 10 μM, A549, MOI 1.0, titer at 24 hpi
Protocol: Next, the cells were rinsed with phosphate-buffered saline twice, and fresh medium containing 10 μM hirsutine was added. At 2, 4, and 6 hpi, the cells were rinsed with phosphate-buffered saline twice and fresh medium was added. At 24 hpi, the cell culture supernatant was collected, and viral titer was measured by plaque assay.
as §4

[6] = system: influenza A virus (subtype H3N2); design: method as in Takayama et al., 1997; Tietze and Zhou, 1999; details: ref Takayama et al., 1997, Tietze and Zhou, 1999; cited from earlier work
[7] = system: DGL2 and DGL2-mut DENV-1 replicon; assay: Transient subgenomic reporter replicon assay (Gaussia luciferase); details: 10 μM, A549 cells
Protocol: A549 cells were cultured in a 24-well plate and transfected with DGL2 and DGL2-mut using X-tremeGENE HP DNA transfection reagent (Roche, Basel, Switzerland); 10 μM of hirsutine was added at baseline. The cell culture medium was collected and replaced with fresh medium containing 10 μM of hirsutine every 24 h. The Gaussia luciferase activity in the culture medium was measured using a microplate reader.
(A) Schematic representation of the replicon system, which uses DGL2 and DGL2-mut. DGL2-mut was inserted in non-replicative mutation into RNA-dependent RNA polymerase (RdRp). CMVp, cytomegalovirus promoter; Gluc, secretory Gaussia luciferase; IRES, internal ribosome entry site; GAA, mutation in the active center for RdRp; and Rib, ribozyme sequence. (B) Replicon plasmids DGL2 and DGL2-mut were transfected to A549 cells in the presence of 10 μM hirsutine. After 24 and 72 h, luciferase activity in the culture supernatant was analyzed. Each data point represents the mean ± standard deviation from triplicate experiments.

## CC[C@H]1CN2CCc3c([nH]c4ccccc34)[C@H]2C[C@@H]1/C(=C\OC)C(=O)OC [Hirsutine]
DENV-1 (02-20 strain) [1]
  EC50: 1970 nM
  SI: >5.3
DENV-1 (02-20 strain) [2]
  virus titer: decreased
MTT cytotoxicity assay
  CC50 at 3 day: > 10000 nM
[3]; 10 μM
  NS3 protein expression levels: did not change
DENV-1 [4]
  virus titer in culture supernatant, time-of-drug-addition: reduced the virus titer significantly up to 12 hpi
DENV-2 (16681 strain)
  virus titer: decreased
DENV-3 (09-59 strain)
  virus titer: decreased
DENV-4 (09-48 strain)
  virus titer: decreased
DENV-1 [5]; 2-h treatment
  virus titer in culture supernatant, time-of-drug-elimination: did not decrease the virus titer
DENV-1 [5]; 4-h treatment
  virus titer in culture supernatant, time-of-drug-elimination: did decrease
[6]
  EC50 more effective than ribavirin: over 10 fold
[7]; DGL2, 24 h and 72 h post-transfection
  Gaussia luciferase activity in culture supernatant: did not reduce luciferase activity levels
[7]; non-replicate DGL2-mut, 24 h and 72 h post-transfection
  Gaussia luciferase activity in culture supernatant: did not reduce luciferase activity levels

## C[C@H]1CC[C@@]2(OC1)O[C@H]1C[C@H]3[C@@H]4CC[C@@H]5C[C@@H](O[C@@H]6O[C@H](CO)[C@H](O)[C@H](O)[C@H]6O[C@@H]6O[C@H](CO)[C@@H](O)[C@H](O)[C@H]6O)CC[C@]5(C)[C@H]4CC[C@]3(C)[C@H]1[C@@H]2C [Timosaponin-AIII]
DENV-1 (02-20 strain) [1]
  EC50: 1700 nM
  SI: >5.9
MTT cytotoxicity assay
  CC50 at 3 day: > 10000 nM

## CC(C)C[C@H]1C(=O)N2CCC[C@H]2[C@]2(O)O[C@](NC(=O)[C@@H]3C=C4c5cccc6[nH]c(Br)c(c56)C[C@H]4N(C)C3)(C(C)C)C(=O)N12 [bromocriptine]
[3]; 10 μM
  NS3 protein expression levels: decreased significantly

## NC(=O)c1ncn([C@@H]2O[C@H](CO)[C@@H](O)[C@H]2O)n1 [ribavirin]
[3]; 100 μM
  NS3 protein expression levels: decreased significantly
